The values that follow come from patent US20260224589A1 (priority 2023, published 2026).

SMILES strings stand for the structures. Where two headings read alike, the source gives them in different places. Bounds are passed on as bounds.

This assay deals with AsPC-1 cells. Put plainly: phospho-ERK HTRF assay in AsPC-1 cells, 4 h treatment. It is filed as cell-based. The conditions noted are these: Homo sapiens, ASPC1.
[1] abbreviates: AsPC-1, 4h, Table 1b, read-out: PERK IC50 (AsPC-1, 4h).
[2] abbreviates: AsPC-1, 4H, Table 1a class column, read-out: pERK IC50 activity range (*).
Setting [3] is: AsPC-1, 4H, Table 1a, read-out: PERK IC50 (AsPC-1, 4H).

As a reminder, the IC50 is the concentration that inhibits the measured activity by half. Regarding `Cc1cc(N)c(F)c([C@@H]2Cc3nc(OC[C@@]45CCCN4C[C@H](F)C5)nc(N4CCCn5nc(C(=O)N(C)C)c(Cl)c5C4)c3CO2)c1C(F)(F)F` [215a, 5-((S)-7-(3-amino-2-fluoro-5-methyl-6-(trifluoromethyl)phenyl)-2-(((2R,7aS)-2-fluorotetrahydro-1H-pyrrolizin-7a(5H)-yl)methoxy)-7,8-dihydro-5H-pyrano[4,3-d]pyrimidin-4-yl)-3-chloro-N,N-dimethyl-5,6,7,8-tetrahydro-4H-pyrazolo[1,5-a][1,4]diazepine-2-carboxamide], the IC50 under setting [1] was less than 10 nM.

`CN(C)C(=O)c1nc2c(s1)CN(c1nc(OC[C@@]34CCCN3C[C@H](F)C4)nc3c1CO[C@H](c1c(C(F)(F)F)ccc(N)c1F)C3)CCC2` [compound 209]: the 50% inhibitory concentration (IC50) by setting is: under setting [2], 101 to 500 nM; under setting [3], 479 nM. In the case of `CN(C)C(=O)c1nn2c(c1Cl)CN(c1nc(OC[C@@]34CCCN3C/C(=C\F)C4)nc3c1CO[C@@H](c1c(F)c(N)cc(Cl)c1C(F)(F)F)C3)CCC2` [247b, 5-((R)-7-(3-amino-5-chloro-2-fluoro-6-(trifluoromethyl)phenyl)-2-(((S,Z)-2-(fluoromethylene)tetrahydro-1H-pyrrolizin-7a(5H)-yl)methoxy)-7,8-dihydro-5H-pyrano[4,3-d]pyrimidin-4-yl)-3-chloro-N,N-dimethyl-5,6,7,8-tetrahydro-4H-pyrazolo[1,5-a][1,4]diazepine-2-carboxamide], the half-maximal inhibitory concentration (IC50) under setting [2] was greater than 500 nM and the IC50 under setting [3] is 615 nM. Consider `CN(C)C(=O)c1nn2c(c1Cl)CN(c1nc(OC[C@@]34CCCN3C/C(=C\F)C4)nc3c1COC(c1cc(N)cc(Cl)c1C1CC1)C3)CCC2` (stereo partly shown) [compound 438], for which, under setting [1], the 50% inhibitory concentration (IC50) was less than 10 nM.

For the compound `CN(C)C(=S)c1nn2c(c1Cl)CN(c1nc(OC[C@@]34CCCN3C[C@H](F)C4)nc3c1CO[C@H](c1c(C(F)(F)F)ccc(N)c1F)C3)CCC2` [compound 223], the IC50 is, setting by setting: under setting [2], 101 to 500 nM; under setting [3], 147 nM.

`CN(C)C(=O)c1nn2c(c1Cl)CN(c1nc(OC[C@@]34CCCN3C/C(=C\F)C4)nc3c1CO[C@H](c1cc(N)cc(Cl)c1C1CC1)C3)CCC2` [compound 439]: under setting [1], the IC50 was less than 10 nM. `CN(C)C(=O)c1cc2n(n1)CCCN(c1nc(OC[C@@]34CCCN3CC(=C(F)F)C4)nc3c1CO[C@H](c1cc(N)cc(Cl)c1C(F)(F)F)C3)C2` [compound 411]: the IC50 under setting [1] is less than 10 nM.

As for `Nc1ccc(C(F)(F)F)c(C2Cc3nc(OC[C@@]45CCCN4C[C@H](F)C5)nc(N4CCCn5nc(C(=O)N6CCOCC6)c(Cl)c5C4)c3CO2)c1F` (stereo partly shown) [compound 227], the IC50 reads like this: under setting [2], 31 to 100 nM; under setting [3], 97 nM. In the case of `Cc1c(C(=O)N(C)C)nn2c1CN(c1nc(OC[C@@]34CCCN3C/C(=C\F)C4)nc3c1CO[C@H](c1c(F)c(N)cc(Cl)c1C(F)(F)F)C3)CCC2` [compound 440], the IC50 under setting [1] was less than 10 nM.

On to `Cc1c(C(=O)N(C)C)nn2c1CN(c1nc(OC[C@@]34CCCN3CC(=C(F)F)C4)nc3c1CO[C@H](c1cc(N)cc(F)c1C(F)(F)F)C3)CCC2` [compound 407], for which, under setting [2], the IC50 fell in the range of 10 to 30 nM. For the compound `CON(C)C(=O)c1nn2c(c1Cl)CN(c1nc(OC[C@@]34CCCN3C[C@H](F)C4)nc3c1CO[C@H](c1cc(N)cc(Cl)c1C(F)(F)F)C3)CCC2` [compound 448], under setting [1], the concentration for half-maximal inhibition (IC50) is less than 10 nM.

For the compound `CON(C)C(=O)c1nn2c(c1Cl)CN(c1nc(OC[C@]34CCCN3C[C@@H](C=C(F)F)C4)nc3c1COC(c1cc(N)cc(Cl)c1C(F)(F)F)C3)CCC2` (stereo partly shown) [compound 451], the half-maximal inhibitory concentration (IC50) under setting [2] was 10 to 30 nM. In the case of `CC#Cc1cc(N)c(F)c([C@@H]2Cc3nc(OC[C@@]45CCCN4C[C@H](F)C5)nc(N4CCCn5nc(C(=O)N(C)C)c(C)c5C4)c3CO2)c1C(F)(F)F` [compound 444], the IC50 under setting [1] was less than 10 nM. Turning to `CN(C)C(=O)c1nc2c(o1)CCCN(c1nc(OC[C@@]34CCCN3C[C@H](F)C4)nc3c1COC(c1c(C(F)(F)F)ccc(N)c1F)C3)C2` (stereo partly shown) [compound 208], the IC50 by setting is: under setting [2], greater than 500 nM; under setting [3], 1440 nM.

For the compound `CON(C)C(=O)c1nn2c(c1C)CN(c1nc(OC[C@@]34CCCN3C/C(=C\F)C4)nc3c1COC(c1cc(N)cc(Cl)c1C(F)(F)F)C3)CCC2` (stereo partly drawn) [compound 450, 5-(7-(5-amino-3-chloro-2-(trifluoromethyl)phenyl)-2-(((S,Z)-2-(fluoromethylene)tetrahydro-1H-pyrrolizin-7a(5H)-yl)methoxy)-7,8-dihydro-5H-pyrano[4,3-d]pyrimidin-4-yl)-N-methoxy-N,3-dimethyl-5,6,7,8-tetrahydro-4H-pyrazolo[1,5-a][1,4]diazepine-2-carboxamide], the IC50 under setting [2] fell in the range of 10 to 30 nM. `CN(C)C(=O)c1nn2c(c1Cl)CN(c1nc(OC[C@@]34CCCN3C[C@H](F)C4)nc3c1CO[C@@H](c1c(F)c(N)cc(Cl)c1C(F)(F)F)C3)CCC2` [213b]: the concentration for half-maximal inhibition (IC50) by setting is: under setting [2], 101 to 500 nM; under setting [3], 320 nM.

In the case of `CN(C)C(=O)c1nc2c(s1)CCCN(c1nc(OC[C@@]34CCCN3C[C@H](F)C4)nc3c1CO[C@H](c1c(C(F)(F)F)ccc(N)c1F)C3)C2` [compound 202], the 50% inhibitory concentration (IC50) under setting [2] was greater than 500 nM and the half-maximal inhibitory concentration (IC50) under setting [3] is greater than 10000 nM. For `CN(C)C(=O)n1nc2c(c1Cl)CN(c1nc(OC[C@@]34CCCN3C[C@H](F)C4)nc3c1COC(c1c(C(F)(F)F)ccc(N)c1F)C3)CCC2` (stereo partly shown) [compound 226] the same measures were greater than 500 nM and 943 nM.

With `CN(C)C(=O)c1nn2c(c1Cl)CN(c1nc(OC[C@@]34CCCN3C[C@H](F)C4)nc3c1COC(c1c(C(F)(F)F)ccc(N)c1F)C3)CC1(COC1)C2` (stereo partly shown) [compound 222], the IC50 runs as follows: under setting [2], greater than 500 nM; under setting [3], greater than 10000 nM. The corresponding values for `CN1CCOc2c(nn3c2CN(c2nc(OC[C@@]45CCCN4C[C@H](F)C5)nc4c2CO[C@@H](c2c(C(F)(F)F)ccc(N)c2F)C4)CCC3)C1=O` [212b] are greater than 500 nM and greater than 10000 nM. The corresponding values for `CN(C)C(=O)c1nn2c(c1Cl)CN(c1nc(OC[C@@]34CCCN3CC(=C(F)F)C4)nc3c1CO[C@H](c1c(C(F)(F)F)ccc(N)c1F)C3)CCC2` [231a, 5-((S)-7-(3-amino-2-fluoro-6-(trifluoromethyl)phenyl)-2-(((S)-2-(difluoromethylene)tetrahydro-1H-pyrrolizin-7a(5H)-yl)methoxy)-7,8-dihydro-5H-pyrano[4,3-d]pyrimidin-4-yl)-3-chloro-N,N-dimethyl-5,6,7,8-tetrahydro-4H-pyrazolo[1,5-a][1,4]diazepine-2-carboxamide] are 31 to 100 nM and 32 nM. On to `CN(C)C(=N)c1nn2c(c1Cl)CN(c1nc(OC[C@@]34CCCN3C[C@H](F)C4)nc3c1CO[C@H](c1c(C(F)(F)F)ccc(N)c1F)C3)CCC2` [compound 221], for which the IC50 by setting is: under setting [2], greater than 500 nM; under setting [3], greater than 10000 nM. The corresponding values for `CN(C)C(=O)c1nn2c(c1Cl)CN(c1nc(OC[C@@]34CCCN3C[C@H](F)C4)nc3c1COC(c1c(C(F)(F)F)ccc(Br)c1F)C3)CC1(COC1)C2` (stereo partly shown) [compound 218] are greater than 500 nM and greater than 10000 nM. For `Nc1ccc(C(F)(F)F)c(C2Cc3nc(OC[C@@]45CCCN4C[C@H](F)C5)nc(N4CCNC5CS(=O)(=O)C[C@H]54)c3CO2)c1F` (stereo partly shown) [compound 207] the same measures were greater than 500 nM and greater than 10000 nM. The corresponding values for `CN(C)C(=O)c1nn2c(c1Br)CN(c1nc(OC[C@@]34CCCN3C[C@H](F)C4)nc3c1CO[C@H](c1c(C(F)(F)F)ccc(N)c1F)C3)CCC2` [compound 224] are 10 to 30 nM and 22 nM.
